Reference: patent US20020106657A1, “Genetic test to determine non-responsiveness to statin drug treatment” (priority 1999, published 2002)
Values joined by “and” are separate entries in the source; they are usually repeats but may differ in a detail not shown here. Equal entries are not always repeated. Where two headings read alike, the source gives them in different places.

How the values were obtained:
[1] = tested on: CABG patients (saphenous-vein coronary-artery bypass grafts); assay: Post-CABG Trial: angiographic graft worsening under lovastatin (aggressive vs moderate) and warfarin; assay type: in vivo, human
Description: A genetic association study was conducted by a within-case comparison ancillary to the Post Coronary Artery Bypass Graft Trial. (The Post Coronary Artery Bypass Graft Trial Investigators. The effect of aggressive lowering of low-density lipoprotein cholesterol levels and low-dose anticoagulation on obstructive changes in saphenous-vein coronary-artery bypass grafts, N. Engl. J. Med. 336:153-62 [1997]). A two stage design was followed. First, EBV-transformed lymphoblastoid cell lines were established for subjects from the Los Angeles (L.A.) cohort providing a permanent source of DNA for testing hypotheses related to atherosclerosis-related candidate genes. Then, significant results were tested in a second stage by genotyping all available subjects in the post-CABG trial using DNA isolated from whole blood shipped to Cedars-Sinai Medical Center from the other participating centers.
(§1) Participants were randomly assigned, following a two by two design, to receive 1) lovastatin therapy to lower the LDL-cholesterol level to within the range of 93-97 mg/dl (aggressive treatment group) or 132-136 mg/dl (moderate treatment group), and 2) placebo or low-dose warfarin (Post-CABG, 1997). Coronary angiograms of 1351 subjects at enrollment and an average of 4.3 years later were compared using a quantitative assessment of the severity of graft stenosis. Graft worsening was defined as a decrease in lumen diameter of 0.6mm or more. The percentage of subjects with worsening of one or more grafts was 39% in the aggressive treatment group compared to 51% in the moderate treatment group (p<0.00 1) and the mean percentage of grafts per patient showing worsening was 27% in the aggressive treatment group compared to 39% in the moderate treatment group (p<0.001).
(§2) A total of 1351 subjects from seven clinical centers throughout North America were included in the clinical trial and all were eligible as participants. Genetic material was received from 891 subjects who were included in this ancillary study. Inclusion criteria for the clinical trial were: bypass surgery 1 -11 years prior to the study; an LDL-cholesterol level of 130-175 mg/dl; and at least one patent vein graft as determined by angiography. Subjects were excluded if there was: (a) the likelihood of revascularization or death within the study period of 5 years; (b) unstable angina or myocardial infarction within six months before the start of the trial; (c) severe angina; (d) heart failure; or (e) contraindications to the study medications. Id. Subjects were randomly assigned in a two by two factorial design for treatment to lower LDL-cholesterol levels aggressively (target LDL 93-97 mg/dl) or moderately (target LDL 132-136 mg/dl) with lovastatin and cholestyramine if needed, and for treatment with either placebo or warfarin sufficient to maintain an international normalized ratio of less than 2. Id. Graft worsening was determined by comparing the initial angiogram at enrollment with a follow-up angiogram repeated an average of 4.3 years later. “Worsening” was defined as a reduction in diameter ≧0.6mm in diameter. “Subjects with worsening” were defined as those subjects with one or more grafts showing worsening.
Differences in baseline characteristics between treatment groups and between genotype groups were tested by one-way analysis of variance or Chi-square tests. Log-transformed HDL and TG values were used to perform all statistical analyses in order to adjust for their skewed distributions, but are presented in the tables as untransformed means ±SE. The association between graft worsening and LPL genotype was tested by Chi-square test. Mantel-Haenszel statistics were used for testing the interactions between genotypes and treatment groups. The proportion of grafts showing worsening per subject was used as the quantitative measurement of graft worsening, and multiple regression was performed to for this proportion as a function of genotype and treatment group to identify predictors. […]

[2] = tested on: CABG patients; assay: Post-CABG Trial: serum lipid levels and lovastatin dose needed, by treatment group or LPL HindIII genotype; assay type: in vivo, human
Description: as §1, §2
Differences in baseline characteristics between treatment groups and between genotype groups were tested by one-way analysis of variance or Chi-square tests. Log-transformed HDL and TG values were used to perform all statistical analyses in order to adjust for their skewed distributions, but are presented in the tables as untransformed means ±SE. The association between graft worsening and LPL genotype was tested by Chi-square test. Mantel-Haenszel statistics were used for testing the interactions between genotypes and treatment groups. The proportion of grafts showing worsening per subject was used as the quantitative measurement of graft worsening, and multiple regression was performed to for this proportion as a function of genotype and treatment group to identify predictors. Adjusted variables for this trait included age, gender, body mass index, smoking status, number of years since CABG, systolic and diastolic blood pressure, current medicine use, and family history as listed in Table 1. All statistical analyses were carried out with SAS software (version 6.12, SAS Institute, Cary, N.C.).
To investigate potential mechanisms for the association between the LPL HindIII 2/2 genotype and graft worsening, baseline characteristics and response of the subjects to the lipid-lowering action of lovastatin were compared between subjects (Table 3). There were no differences observed between the baseline values for total cholesterol, HDL-cholesterol, and triglycerides. However, a small difference in LDL-cholesterol was observed, 159.6±2.1 mg/dl for subjects with HindIII 2/2 compared with 155.0±0.7 for 1/1 and 1/2, p=0.04. […]

[3] = tested on: CABG patients (saphenous-vein coronary-artery bypass grafts); conditions: cited from earlier work; for percentage of subjects with worsening of one or more grafts: 1351 subjects, average 4.3 years
[4] = Aggressive treatment group (N = 430), mean ± SE
[5] = LPL HindIII 1/1 & 1/2 genotype (N = 817)
[6] = LPL HindIII 2/2 genotype (N = 74)
[7] = Moderate treatment group (N = 406), mean ± SE

CC[C@H](C)C(=O)O[C@H]1C[C@@H](C)C=C2C=C[C@H](C)[C@H](CC[C@@H]3C[C@@H](O)CC(=O)O3)[C@H]21 [lovastatin]
percent of subjects with graft worsening ([1]; HindIII 1/1 and 1/2 genotype, moderate drug treatment group): 49% | percent of subjects with graft worsening ([1]; HindIII 1/1 or 1/2 genotype, aggressive lipid-lowering treatment group): 35% | percent of subjects with graft worsening ([1]; HindIII 2/2 genotype, aggressive treatment group): 54% | percent of subjects with graft worsening ([1]; HindIII 2/2 genotype, moderate lipid-lowering treatment group): 65% | odds ratio for graft worsening, combined unfavorable LPL HindIII genotype with moderate drug treatment ([1]; HindIII 2/2 plus moderate lipid-lowering, 95% CI 1.4-8.7): 3.5 | odds ratio, effect of treatment on graft worsening ([1]; adjusted for / stratified by LPL HindIII genotype, 95% CI 1.32-2.4): 1.78 and 1.8 | odds ratio for graft worsening, moderate vs aggressive drug treatment ([1]; within LPL HindIII 1/1 and 1/2 genotype group, 95% CI 1.3 to 2.4): 1.8 | Steady state lipid levels: HDL cholesterol [2, 4]: 44.9 ± 0.6 mg/dL | Steady state lipid levels: LDL cholesterol [2, 4]: 97.1 ± 1.3 mg/dL | Steady state lipid levels: Total cholesterol [2, 4]: 172.6 ± 1.6 mg/dL | Steady state lipid levels: Triglycerides [2, 4]: 157.4 ± 4.5 mg/dL | Lipid change: HDL cholesterol [2, 5]: 14.2 ± 1.0% | Lipid change: LDL cholesterol [2, 5]: 45.1 ± 1.5% | Lipid change: Total cholesterol [2, 5]: 15.2 ± 0.6% | Lipid change: Triglycerides [2, 5]: 8.2 ± 2.0% | Steady state lipid levels: HDL cholesterol [2, 5]: 44.1 ± 0.4 mg/dL | Steady state lipid levels: LDL cholesterol [2, 5]: 114.7 ± 1.1 mg/dL | Steady state lipid levels: Total cholesterol [2, 5]: 191.0 ± 1.3 mg/dL | Steady state lipid levels: Triglycerides [2, 5]: 163.6 ± 3.4 mg/dL | Lipid change: HDL cholesterol [2, 6]: 14.1 ± 3.1% | Lipid change: LDL cholesterol [2, 6]: 53.5 ± 6.9% | Lipid change: Total cholesterol [2, 6]: 16.9 ± 2.0% | Lipid change: Triglycerides [2, 6]: 6.0 ± 5.8% | Steady state lipid levels: HDL cholesterol [2, 6]: 46.7 ± 1.6 mg/dL | Steady state lipid levels: LDL cholesterol [2, 6]: 115.1 ± 4.3 mg/dL | Steady state lipid levels: Total cholesterol [2, 6]: 191.1 ± 4.8 mg/dL | Steady state lipid levels: Triglycerides [2, 6]: 151.0 ± 9.6 mg/dL | Steady state lipid levels: HDL cholesterol [2, 7]: 43.7 ± 0.6 mg/dL | Steady state lipid levels: LDL cholesterol [2, 7]: 133.0 ± 1.3 mg/dL | Steady state lipid levels: Total cholesterol [2, 7]: 209.5 ± 1.6 mg/dL | Steady state lipid levels: Triglycerides [2, 7]: 164.5 ± 4.4 mg/dL | percentage of patients with atherosclerotic worsening of grafts within 4 years ([3]; aggressive lovastatin treatment (LDL-C lowered to 93-97 mg/dl)): 39% | percentage of subjects with worsening of one or more grafts ([3]; aggressive treatment group, worsening = lumen diameter decrease 0.6 mm or more): 39% | mean percentage of grafts per patient showing worsening ([3]; aggressive treatment group): 27% | number of patients who required a second CABG procedure, lower than in moderate-treatment group ([3]; aggressive vs moderate lovastatin treatment group): 29% | percentage of patients with atherosclerotic worsening of grafts within 4 years ([3]; moderate lovastatin treatment (LDL-C lowered to 132-136 mg/dl)): 51% | percentage of subjects with worsening of one or more grafts ([3]; moderate treatment group): 51% | mean percentage of grafts per patient showing worsening ([3]; moderate treatment group): 39%

CC(=O)CC(c1ccccc1)c1c(O)c2ccccc2oc1=O (stereo not drawn) [warfarin]
effect of the warfarin treatment on graft worsening ([3]; low-dose warfarin vs placebo): No effect
